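Tested at 5 concentrations; 48 h exposure; 96-well plates; endpoints linearly interpolated, else capped at highest concentration. At the GI50, growth is halved.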 The source made the active and inactive calls. Cut-off read from the data, not from the text of the source: active = GI50 up to about 1.1 µM and inactive = higher.
Legend:
Test in all cases: DTP human tumour cell line panel, 48 h
786-0 = test system: 786-0
A498 = test system: A498
A549 = test system: A549
ACHN = test system: ACHN
BT-549 = test system: BT-549
CAKI-1 = test system: CAKI-1
CCRF-CEM = test system: CCRF-CEM
COLO 205 = test system: COLO 205
DU-145 = test system: DU-145
EKVX = test system: EKVX
HCC 2998 = test system: HCC 2998
HCT-116 = test system: HCT-116
HCT-15 = test system: HCT-15
HOP-62 = test system: HOP-62
HT-29 = test system: HT-29
Hs-578T = test system: Hs-578T
IGROV-1 = test system: IGROV-1
K562 = test system: K562
LOX IMVI = test system: LOX IMVI
M14 = test system: M14
MDA-MB-231 = test system: MDA-MB-231
MDA-MB-435 = test system: MDA-MB-435
MDA-N = test system: MDA-N
MOLT-4 = test system: MOLT-4
Malme-3M = test system: Malme-3M
NCI-H23 = test system: NCI-H23
NCI-H460 = test system: NCI-H460
NCI-H522 = test system: NCI-H522
NCI/ADR-RES = test system: NCI/ADR-RES
OVCAR-3 = test system: OVCAR-3
OVCAR-4 = test system: OVCAR-4
OVCAR-8 = test system: OVCAR-8
PC-3 = test system: PC-3
RXF 393 = test system: RXF 393
SF-268 = test system: SF-268
SF-295 = test system: SF-295
SF-539 = test system: SF-539
SK-MEL-28 = test system: SK-MEL-28
SK-MEL-5 = test system: SK-MEL-5
SK-OV-3 = test system: SK-OV-3
SN12C = test system: SN12C
SNB-19 = test system: SNB-19
SNB-75 = test system: SNB-75
SW-620 = test system: SW-620
T47D = test system: T47D
TK-10 = test system: TK-10
U-251 = test system: U-251
UACC-257 = test system: UACC-257
UACC-62 = test system: UACC-62
UO-31 = test system: UO-31
HL-60 = test system: HL-60
HOP-92 = test system: HOP-92
KM12 = test system: KM12
NCI-H226 = test system: NCI-H226
OVCAR-5 = test system: OVCAR-5
RPMI-8226 = test system: RPMI-8226
SK-MEL-2 = test system: SK-MEL-2
MCF7 = test system: MCF7
SR = test system: SR

## CSc1nc(C)c(CCCl)c(Cl)n1
786-0
  GI50: > 100 µM (inactive)
A498
  GI50: > 100 µM (inactive)
A549
  GI50: > 100 µM (inactive)
ACHN
  GI50: > 100 µM (inactive)
BT-549
  GI50: 87.7 µM (inactive)
CAKI-1
  GI50: > 100 µM (inactive)
CCRF-CEM
  GI50: 20.8 µM (inactive)
COLO 205
  GI50: 35.2 µM (inactive)
DU-145
  GI50: > 100 µM (inactive)
EKVX
  GI50: > 100 µM (inactive)
HCC 2998
  GI50: > 100 µM (inactive)
HCT-116
  GI50: 36.6 µM (inactive)
HCT-15
  GI50: > 100 µM
HOP-62
  GI50: > 100 µM (inactive)
HT-29
  GI50: > 100 µM (inactive)
Hs-578T
  GI50: > 100 µM (inactive)
IGROV-1
  GI50: > 100 µM (inactive)
K562
  GI50: 31.8 µM (inactive)
LOX IMVI
  GI50: 29.6 µM (inactive)
M14
  GI50: 32.4 µM (inactive)
MDA-MB-231
  GI50: > 100 µM (inactive)
MDA-MB-435
  GI50: 34.1 µM (inactive)
MDA-N
  GI50: 49.8 µM (inactive)
MOLT-4
  GI50: 27.4 µM (inactive)
Malme-3M
  GI50: > 100 µM (inactive)
NCI-H23
  GI50: > 100 µM (inactive)
NCI-H460
  GI50: > 100 µM (inactive)
NCI-H522
  GI50: 20.6 µM (inactive)
NCI/ADR-RES
  GI50: > 100 µM (inactive)
OVCAR-3
  GI50: > 100 µM (inactive)
OVCAR-4
  GI50: > 100 µM (inactive)
OVCAR-8
  GI50: > 100 µM (inactive)
PC-3
  GI50: > 100 µM (inactive)
RXF 393
  GI50: > 100 µM (inactive)
SF-268
  GI50: > 100 µM (inactive)
SF-295
  GI50: > 100 µM (inactive)
SF-539
  GI50: > 100 µM (inactive)
SK-MEL-28
  GI50: > 100 µM (inactive)
SK-MEL-5
  GI50: 42.1 µM (inactive)
SK-OV-3
  GI50: > 100 µM (inactive)
SN12C
  GI50: 52.6 µM (inactive)
SNB-19
  GI50: > 100 µM (inactive)
SNB-75
  GI50: > 100 µM (inactive)
SW-620
  GI50: 42.6 µM (inactive)
T47D
  GI50: > 100 µM (inactive)
TK-10
  GI50: > 100 µM (inactive)
U-251
  GI50: > 100 µM (inactive)
UACC-257
  GI50: > 100 µM (inactive)
UACC-62
  GI50: 89.1 µM (inactive)
UO-31
  GI50: > 100 µM (inactive)

## N#C[C@H](C(=O)c1ccccc1F)c1nc2ccccc2s1
786-0
  GI50: 31.2 µM (inactive)
A498
  GI50: 33 µM (inactive)
A549
  GI50: 29 µM (inactive)
ACHN
  GI50: 49.1 µM (inactive)
BT-549
  GI50: 46.6 µM (inactive)
CAKI-1
  GI50: 32.5 µM (inactive)
CCRF-CEM
  GI50: 23.4 µM (inactive)
COLO 205
  GI50: 23.7 µM (inactive)
DU-145
  GI50: 42.6 µM (inactive)
EKVX
  GI50: 28 µM (inactive)
HCT-116
  GI50: 23.5 µM (inactive)
HCT-15
  GI50: 54.5 µM
HL-60
  GI50: 31.3 µM (inactive)
HOP-62
  GI50: 20.5 µM (inactive)
HOP-92
  GI50: 48.1 µM (inactive)
HT-29
  GI50: 28.1 µM (inactive)
Hs-578T
  GI50: 15.1 µM (inactive)
IGROV-1
  GI50: 17.8 µM (inactive)
K562
  GI50: 27.3 µM (inactive)
KM12
  GI50: 11 µM (inactive)
LOX IMVI
  GI50: 33 µM (inactive)
M14
  GI50: 21.8 µM (inactive)
MDA-MB-231
  GI50: 35.8 µM (inactive)
MDA-MB-435
  GI50: 39.8 µM (inactive)
MDA-N
  GI50: 38.3 µM (inactive)
MOLT-4
  GI50: 26.5 µM (inactive)
Malme-3M
  GI50: 10.4 µM (inactive)
NCI-H226
  GI50: 21.9 µM (inactive)
NCI-H23
  GI50: 46.3 µM (inactive)
NCI-H460
  GI50: 28.9 µM (inactive)
NCI-H522
  GI50: 15.5 µM (inactive)
NCI/ADR-RES
  GI50: 26.9 µM (inactive)
OVCAR-3
  GI50: 18.5 µM (inactive)
OVCAR-5
  GI50: 31 µM (inactive)
OVCAR-8
  GI50: 25.1 µM (inactive)
PC-3
  GI50: 24.2 µM (inactive)
RPMI-8226
  GI50: 22.5 µM (inactive)
RXF 393
  GI50: 27.7 µM (inactive)
SF-268
  GI50: 26.9 µM (inactive)
SF-295
  GI50: 16.1 µM (inactive)
SF-539
  GI50: 20.7 µM (inactive)
SK-MEL-28
  GI50: 36.5 µM (inactive)
SK-MEL-2
  GI50: 16.6 µM (inactive)
SK-MEL-5
  GI50: 26.9 µM (inactive)
SK-OV-3
  GI50: 21.1 µM (inactive)
SN12C
  GI50: 31.6 µM (inactive)
SNB-19
  GI50: 27.5 µM (inactive)
SNB-75
  GI50: 14.8 µM (inactive)
SW-620
  GI50: 32.3 µM (inactive)
T47D
  GI50: 34.8 µM (inactive)
TK-10
  GI50: > 100 µM (inactive)
U-251
  GI50: 33.3 µM (inactive)
UACC-257
  GI50: 66.1 µM (inactive)
UACC-62
  GI50: 50.8 µM (inactive)
UO-31
  GI50: 46.8 µM (inactive)

## CN(/N=C/c1ccccn1)C1=NCCN1
786-0
  GI50: > 100 µM (inactive)
A498
  GI50: > 100 µM (inactive)
A549
  GI50: > 100 µM (inactive)
ACHN
  GI50: > 100 µM (inactive)
BT-549
  GI50: > 100 µM (inactive)
CAKI-1
  GI50: > 100 µM (inactive)
CCRF-CEM
  GI50: > 100 µM (inactive)
COLO 205
  GI50: > 100 µM (inactive)
EKVX
  GI50: > 100 µM (inactive)
HCC 2998
  GI50: > 100 µM (inactive)
HCT-116
  GI50: > 100 µM (inactive)
HCT-15
  GI50: > 100 µM
HL-60
  GI50: > 100 µM (inactive)
HOP-62
  GI50: > 100 µM (inactive)
HOP-92
  GI50: > 100 µM (inactive)
HT-29
  GI50: > 100 µM (inactive)
Hs-578T
  GI50: > 100 µM (inactive)
IGROV-1
  GI50: > 100 µM (inactive)
K562
  GI50: > 100 µM (inactive)
KM12
  GI50: > 100 µM (inactive)
LOX IMVI
  GI50: > 100 µM (inactive)
M14
  GI50: > 100 µM (inactive)
MCF7
  GI50: > 100 µM (inactive)
MDA-MB-231
  GI50: > 100 µM (inactive)
MDA-MB-435
  GI50: > 100 µM (inactive)
MDA-N
  GI50: > 100 µM (inactive)
MOLT-4
  GI50: > 100 µM (inactive)
Malme-3M
  GI50: > 100 µM (inactive)
NCI-H226
  GI50: > 100 µM (inactive)
NCI-H23
  GI50: > 100 µM (inactive)
NCI-H460
  GI50: > 100 µM (inactive)
NCI-H522
  GI50: > 100 µM (inactive)
NCI/ADR-RES
  GI50: > 100 µM (inactive)
OVCAR-3
  GI50: > 100 µM (inactive)
OVCAR-4
  GI50: > 100 µM (inactive)
OVCAR-5
  GI50: > 100 µM (inactive)
OVCAR-8
  GI50: > 100 µM (inactive)
PC-3
  GI50: > 100 µM (inactive)
RPMI-8226
  GI50: > 100 µM (inactive)
RXF 393
  GI50: > 100 µM (inactive)
SF-268
  GI50: > 100 µM (inactive)
SF-295
  GI50: > 100 µM (inactive)
SF-539
  GI50: > 100 µM (inactive)
SK-MEL-28
  GI50: > 100 µM (inactive)
SK-MEL-2
  GI50: > 100 µM (inactive)
SK-MEL-5
  GI50: > 100 µM (inactive)
SK-OV-3
  GI50: > 100 µM (inactive)
SNB-19
  GI50: > 100 µM (inactive)
SNB-75
  GI50: > 100 µM (inactive)
SR
  GI50: > 100 µM (inactive)
SW-620
  GI50: > 100 µM (inactive)
T47D
  GI50: > 100 µM (inactive)
U-251
  GI50: > 100 µM (inactive)
UACC-257
  GI50: > 100 µM (inactive)
UACC-62
  GI50: > 100 µM (inactive)
UO-31
  GI50: > 100 µM (inactive)

Reference: ChEMBL document CHEMBL1201862, “PubChem BioAssay data set” (2004)
